# Measurements as given in paper PMC9497135, “Structure-Based Study to Overcome Cross-Reactivity of Novel Androgen Receptor Inhibitors” (Cells, 2022).
# Residue numbers refer to the chain shown, from its start.
# Assays:
# Format in all cases: cell-based
# T878A-AR mutant = target: T1, T878A-AR mutant (Homo sapiens, UniProt P10275, T878A); experiment: Luciferase reporter assay, PC3 cells transfected with T878A-AR; details: in the presence and absence of R1881
# T1 construct: Full-length human wild type AR was cloned into pcDNA3.1 expression plasmid; expressed in transfected cells; host or cells: PC3
# T1 sequence (P10275 1-920 T878A): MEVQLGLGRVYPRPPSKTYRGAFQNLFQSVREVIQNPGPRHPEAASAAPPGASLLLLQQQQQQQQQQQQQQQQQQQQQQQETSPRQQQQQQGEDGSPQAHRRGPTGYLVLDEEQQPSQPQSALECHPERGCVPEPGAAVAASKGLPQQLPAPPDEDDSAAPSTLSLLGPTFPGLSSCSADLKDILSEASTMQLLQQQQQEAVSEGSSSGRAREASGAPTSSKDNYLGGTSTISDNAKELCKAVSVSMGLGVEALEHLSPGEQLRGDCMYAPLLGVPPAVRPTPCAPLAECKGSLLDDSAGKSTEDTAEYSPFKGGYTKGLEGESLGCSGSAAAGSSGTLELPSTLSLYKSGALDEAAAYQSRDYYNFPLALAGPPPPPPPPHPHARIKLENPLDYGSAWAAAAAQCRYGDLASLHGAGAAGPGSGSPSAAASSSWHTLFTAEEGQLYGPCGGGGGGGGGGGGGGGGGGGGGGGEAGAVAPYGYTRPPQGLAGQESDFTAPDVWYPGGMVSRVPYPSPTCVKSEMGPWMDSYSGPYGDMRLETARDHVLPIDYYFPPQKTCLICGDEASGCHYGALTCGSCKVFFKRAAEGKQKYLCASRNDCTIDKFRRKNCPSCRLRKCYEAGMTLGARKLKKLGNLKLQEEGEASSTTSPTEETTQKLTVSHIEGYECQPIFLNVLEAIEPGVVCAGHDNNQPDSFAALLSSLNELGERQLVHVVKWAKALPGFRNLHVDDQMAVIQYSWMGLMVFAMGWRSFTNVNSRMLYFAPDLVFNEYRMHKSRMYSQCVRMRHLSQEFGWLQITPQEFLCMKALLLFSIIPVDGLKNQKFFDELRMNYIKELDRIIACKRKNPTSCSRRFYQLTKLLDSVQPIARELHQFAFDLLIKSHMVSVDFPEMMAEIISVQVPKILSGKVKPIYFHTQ
# Procedure: Full-length human wild type AR was cloned into pcDNA3.1 expression plasmid (Invitrogen, Waltham, MA, USA) with a CMV promoter. The T878A mutant (T878A-AR) was generated with the Quikchange Mutagenesis Kit (Stratagene, San Diego, CA, USA) using hARWT plasmid as a template. Androgen-starved PC3 cells were seeded in 96-well plates (3000 cells/well) in RPMI 1640 + 5% CSS for 24 h followed by transfection with 50 ng of hARWT or hART878A along with 50 ng of ARR3tk-luciferase reporter construct (100 ng total plasmid DNA) and 0.3 µL/well TransIT20/20 transfection reagent (TT2020, Mirus, Madison, Wisconsin, WI, USA) for 48 h. […] Cell lysis was carried out with 60 µL 1X passive lysis buffer/well (Promega, Madison, Wisconsin, WI, USA). The luminescence from 20 µL of cell lysate and 50 µL of Luciferase assay reagent (Promega, Madison, Wisconsin, WI, USA) was recorded on a TECAN M200pro plate reader.
# [1] = target: T2, AR (LNCaP cells, which carry the T878A AR mutation) (Homo sapiens, UniProt P10275, T878A); experiment: eGFP cellular AR transcription assay in LNCaP cells (LN-ARR2PB-eGFP); details: eGFP-expressing LNCaP cells, no R1881
# T2 construct: LNCaP cells, which carry the T878A AR mutation; endogenous in cells; host or cells: LNCaP (LN-ARR2PB-eGFP)
# T2 sequence (P10275 1-920 T878A): T1 sequence (P10275 1-920 T878A)
# wild-type AR = target: T3, wild-type AR (Homo sapiens, UniProt P10275); experiment: Luciferase reporter assay, PC3 cells transfected with wild-type AR; details: in the presence of R1881
# T3 construct: Full-length human wild type AR was cloned into pcDNA3.1 expression plasmid; expressed in transfected cells; host or cells: PC3
# T3 sequence (P10275 1-920): T1 sequence (P10275 1-920 T878A) with A878T
# Procedure: Full-length human wild type AR was cloned into pcDNA3.1 expression plasmid (Invitrogen, Waltham, MA, USA) with a CMV promoter. The T878A mutant (T878A-AR) was generated with the Quikchange Mutagenesis Kit (Stratagene, San Diego, CA, USA) using hARWT plasmid as a template. Androgen-starved PC3 cells were seeded in 96-well plates (3000 cells/well) in RPMI 1640 + 5% CSS for 24 h followed by transfection with 50 ng of hARWT or hART878A along with 50 ng of ARR3tk-luciferase reporter construct (100 ng total plasmid DNA) and 0.3 µL/well TransIT20/20 transfection reagent (TT2020, Mirus, Madison, Wisconsin, WI, USA) for 48 h. Cells were treated with increasing amounts of test compound (0.1% final DMSO concentration) and 0.1 nM R1881 for 24 h. Cell lysis was carried out with 60 µL 1X passive lysis buffer/well (Promega, Madison, Wisconsin, WI, USA). The luminescence from 20 µL of cell lysate and 50 µL of Luciferase assay reagent (Promega, Madison, Wisconsin, WI, USA) was recorded on a TECAN M200pro plate reader.
compound,measurement,setting,value
"COc1c(F)cccc1-c1csc(N2CCOCC2)n1 [VPC14368, 4-(4-(3-fluoro-2-methoxyphenyl)thiazol-2-yl)morpholine]",Concentration above which transcriptional activation of the T878A AR mutant is induced,T878A-AR mutant,higher than 0.4 µM
same,AR transcriptional activity in the absence of R1881,[1],enhanced the AR transcriptional activity
same,"AR transcription, wild-type AR",wild-type AR,inhibited by VPC14368 in a dose-dependent manner
